Test results: patent US8518903B2, “Use of toll-like receptor-9 agonists” (University of Pittsburgh—of the Commonwealth System of …, priority 2007, dated 2013)

Assays:
[1] = test system: murine intestinal mucosa; assay: LPS-dependent signaling and inflammation in the murine intestinal mucosa in vivo; design: species or system mouse; details: LPS + CpG vs LPS
From the text: FIG. 10. Experimental design to assess whether TLR9 activation affects TLR4-mediated inflammation in vivo.
(A). Western blot showing levels of signaling molecules phospho-p38 and phospho-ERK (relative to actin) in mice which were either untreated (Ctrl) or treated with LPS, LPS+CpG, or CpG. (B) Bar graph showing serum levels of the inflammatory cytokine IL-6 in mice which were either untreated (Ctrl) or treated with LPS, LPS+CpG, or CpG.
Experiments were then designed to determine whether the above phenomena, observed in vitro, could be confirmed in vivo (see FIG. 10).

[2] = test system: IEC-6 enterocytes; assay: Assessment of NFkB activation (nuclear:cytoplasmic ratio of p65) in IEC-6 enterocytes; type: cell-based; details: IEC-6 cells, LPS 50 μg/ml, CpG-DNA 1 μM, polymixin B 10 μg/ml, 1 hour
Description: FIG. 21. Nuclear:cytoplasmic ratio of NFκB, indicating the extent of translocation of NFκB into the nucleus, in IEC-6 cells which were either untreated (control); treated with LPS; treated with LPS and CpG; treated with LPS, CpG and polymixin B; treated with CpG; or treated with polymixin B. The concentrations used were LPS at […] CpG-DNA at 1 μM, and polymixin B at 10 μg/ml.
Assessment of NFkB activation. IEC-6 enterocytes were treated with LPS (50 μg/ml, Sigma-Aldrich, St. Louis, Mo.) and/or CpG-DNA (1 μM) either alone or in combination for 1 hour and immunostained with antibodies against the p65 subunit of NF-κB. Quantification of nuclear translocation was performed as adapted from Ding, et al. J Biol. Chem. 1998 Oct. 30; 273(44):28897-905. […] The average NF-κB p65 intensity of the cytoplasmic area was determined by subtracting the area and integrated intensity of the nuclear ROI from the nuclear+cytoplasmic ROI and dividing the cytoplasmic integrated intensity by the cytoplasmic area. The extent of p65 staining in the nucleus versus the cytoplasm (i.e. the nuclear to cytoplasmic ratio) was calculated for each cell by dividing the nuclear average NF-κB p65 intensity by the cytoplasmic average NF-κB p65 intensity. Nuclear to cytoplasmic ratio was calculated for more than 200 cells per treatment group for more than 4 separate experiments.

[3] = test system: experimental NEC in newborn mice; assay: Murine model of necrotizing enterocolitis (formula gavage + hypoxia), CpG treatment; type: in vivo, mouse
Description: FIG. 18A-D. Histology of intestines from mice that were (A) breast fed (control); (B) gavage fed+hypoxic to model necrotizing enterocolitis (NEC); (C) breast fed and treated with 500 μg/kg (approximately 10 μg/animal, intraperitoneally injected) CpG (control); (D) gavage fed+hypoxic to model NEC and treated with 500 μg/kg (approximately 10 μg/animal, intraperitoneally injected) CpG.
(A) Control mice (injected with saline). (B) Mice injected with 5 mg/kg of LPS. (C) Mice injected with 5 mg/kg of LPS and 1 mg/kg of CpG. (D-G) Immunohistochemical staining of terminal ileum from newborn mice that were either breast fed (“control”) or induced to develop NEC (“NEC”). Sections were stained for caspase 3 as a marker of apoptosis and enterocyte loss; positive staining is indicated by a small arrowhead. (D) Control injected with saline. (E) NEC injected with saline. (F) Control injected with 1 mg/kg CpG-DNA daily for four days. (G) NEC injected with 1 mg/kg CpG-DNA daily for four days. (H) Bar graph summarizing results, showing percent apoptosis in terminal ileum as depicted in (D)-(G).
FIG. 20A-I. Newborn mice were either breast fed (“control”) or were induced to develop NEC (“NEC”). (A) Gross micrograph of intestine of a control mouse. (B) Gross micrograph of intestine of a control mouse treated with 1 mg/kg CpG-DNA daily for four days. (C) Gross micrograph of intestine of a NEC mouse. (D) Gross micrograph of intestine of a NEC mouse treated with 1 mg/kg CpG-DNA daily for four days. (E) Micrograph of histological section of intestine of a control mouse. (F) Micrograph of histological section of intestine of a control mouse treated with CpG. (G) Micrograph of histological section of intestine of a NEC mouse. (H) Micrograph of histological section of intestine of a NEC mouse treated with CpG. (I) Summary bar graph of the above results.
FIG. 16 presents a Western blot showing expression of TLR4 and TLR9 in control mice and mice modeling necrotizing enterocolitis (“NEC”). A substantial increase in the level of TLR4, and a decrease in TLR9, was observed. […]

[4] = NEC mice, 1 mg/kg CpG-DNA daily for four days

Substance: 5′-TCCATGACGTTCCTGACGTT-3′ [CpG-DNA]
- serum IL-6 level ([1]; mice): attenuated
- level of phosphorylated ERK (LPS-dependent signaling) ([1]; murine intestinal mucosa): attenuated
- level of phosphorylated p38 (LPS-dependent signaling) ([1]; murine intestinal mucosa): attenuated
- LPS-induced translocation of NFκB into the nucleus (nuclear:cytoplasmic ratio) [2]: significantly inhibited translocation
- NEC pathology (gross and histological) [3, 4]: substantial inhibition of the NEC pathology
- apoptosis in terminal ileum (caspase 3) [3, 4]: substantially reduced apoptosis
- severity of experimental NEC ([3]; wild-type TLR4 mice, 500 μg/kg CpG intraperitoneally): limit the severity of experimental NEC
